Results from patent US5462935A, “Cephalosporin compounds” (Lucky Limited, priority 1990, dated 1995).
≈ marks a conversion by molar mass, not a printed value. Where two headings read alike, the source gives them in different places.

Assays:
ATCC 12228 = assay: minimal inhibitory concentration, two-fold agar dilution; type: cell-based; conditions: Staphylococcus faecalis, ATCC12228, 20 h
Description: (§1) These NIC values were taken by employing a two-fold dilution method: that is, two-fold serial dilutions of each of the test compounds were made and dispersed in a Muller-Hinton agar medium; 2 μl of the standard test strain which had the 10^7 CFU (Colony Forming Unit) per ml was inoculated on the medium; and these were incubated at 37° C. for 20 hours.

[1] = system: Acinetobacter calcoaceticus ATCC 15473; assay: as above; type: cell-based; conditions: ATCC15473, Muller-Hinton agar, 37° C., 20 hours
Description: as §1

[2] = system: Bacillus cereus ATCC 11778; assay: as above; type: cell-based
Description: as §1

[3] = system: Citrobacter freundii ATCC 8090; assay: as above; type: cell-based; conditions: ATCC8090, Muller-Hinton agar, 37° C., 20 hours
Description: as §1

[4] = system: Enterobacter aerogenes ATCC 29751; assay: as above; type: cell-based; conditions: Klebsiella aerogenes
Description: as §1

[5] = system: Enterobacter cloacae ATCC 27508; assay: as above; type: cell-based; conditions: ATCC27508, Muller-Hinton agar, 37° C., 20 hours
Description: as §1

[6] = system: Escherichia coli ATCC 10536; assay: as above; type: cell-based; conditions: ATCC10536, Muller-Hinton agar, 37° C., 20 hours
Description: as §1

[7] = system: Escherichia coli ATCC 25922; assay: as above; type: cell-based; conditions: ATCC25922, Muller-Hinton agar, 37° C., 20 hours
Description: as §1

[8] = system: Klebsiella pneumoniae ATCC 10031; assay: as above; type: cell-based; conditions: ATCC10031, Muller-Hinton agar, 37° C., 20 hours
Description: as §1

[9] = system: Micrococcus luteus ATCC 9341; assay: as above; type: cell-based; conditions: ATCC9341, Muller-Hinton agar, 37° C., 20 hours
Description: as §1

[10] = system: Morganella morganii ATCC 8076h; assay: as above; type: cell-based; conditions: ATCC8076H, 20 h
Description: as §1

[11] = system: Proteus mirabilis ATCC 25933; assay: as above; type: cell-based; conditions: ATCC25933, Muller-Hinton agar, 37° C., 20 hours
Description: as §1

[12] = system: Proteus vulgaris ATCC 6059; assay: as above; type: cell-based; conditions: ATCC6059, Muller-Hinton agar, 37° C., 20 hours
Description: as §1

[13] = system: Providencia rettgeri ATCC 9250; assay: as above; type: cell-based; conditions: ATCC9250, Muller-Hinton agar, 37° C., 20 hours
Description: as §1

[14] = system: Pseudomonas aeruginosa ATCC 25619; assay: as above; type: cell-based; conditions: ATCC25619, Muller-Hinton agar, 37° C., 20 hours
Description: as §1

[15] = system: Pseudomonas aerugionsa ATCC 10145; assay: as above; type: cell-based; conditions: ATCC10145, Muller-Hinton agar, 37° C., 20 hours
Description: as §1

[16] = system: Pseudomonas aerugionsa ATCC 27853; assay: as above; type: cell-based; conditions: ATCC27853, Muller-Hinton agar, 37° C., 20 hours
Description: as §1

[17] = system: Salmonella typhimurium ATCC 14028; assay: as above; type: cell-based; conditions: Salmonella enterica, Muller-Hinton agar, 37° C., 20 hours
Description: as §1

[18] = system: Serratia marcescens ATCC 27117; assay: as above; type: cell-based; conditions: ATCC27117, Muller-Hinton agar, 37° C., 20 hours
Description: as §1

[19] = system: Shigella flexneri ATCC 11836; assay: as above; type: cell-based; conditions: ATCC11836, Muller-Hinton agar, 37° C., 20 hours
Description: as §1

[20] = system: Shigella sonnei ATCC 11060; assay: as above; type: cell-based; conditions: ATCC11060, Muller-Hinton agar, 37° C., 20 hours
Description: as §1

[21] = system: Staphylococcus aureus ATCC 6638p; assay: as above; type: cell-based; conditions: ATCC6638P, 20 h
Description: as §1

[22] = system: Staphylococcus epidermidis ATCC 10537; assay: as above; type: cell-based; conditions: ATCC10537, Muller-Hinton agar, 37° C., 20 hours
Description: as §1

[23] = system: Streptococcus faecalis ATCC 29212; assay: as above; type: cell-based; conditions: Enterococcus faecalis, ATCC29212, Muller-Hinton agar, 37° C., 20 hours
Description: as §1

[24] = acute toxicity test, intravenous; conditions: mouse, in vivo, ICR mice, observed for 14 days
Description: The results are shown in the last row of Table 2.

[25] = system: Bacillus megaterium ATCC 9885; assay: minimal inhibitory concentration, two-fold agar dilution; type: cell-based; conditions: Priestia megaterium
Description: as §1

[26] = Bacillus cereus, ATCC11778, 20 h

SMILES	MIC (ATCC 12228) [µg/mL]	MIC [1] [µg/mL]	MIC [3] [µg/mL]	MIC [5] [µg/mL]	MIC [6] [µg/mL]	MIC [7] [µg/mL]	MIC [8] [µg/mL]	MIC [9] [µg/mL]	MIC [11] [µg/mL]	MIC [12] [µg/mL]	MIC [13] [µg/mL]	MIC [14] [µg/mL]	MIC [15] [µg/mL]	MIC [16] [µg/mL]	MIC [17] [µg/mL]	MIC [18] [µg/mL]	MIC [19] [µg/mL]	MIC [20] [µg/mL]	MIC [21] [µg/mL]	MIC [22] [µg/mL]	further results
Cc1c(N)nc(SCC2=C(C(=O)[O-])N3C(=O)C(NC(=O)/C(=N\O[C@H](C)C(=O)O)c4csc(N)n4)[C@H]3SC2)[n+](C)c1N (stereo partly drawn) [I-R-6, 7-[(Z)-2-(2-aminothiazol-4-yl)-2-[(R)-1-carboxyeth-1-oxyimino]acetamido]-3-[(4,6-diamino-1,5-dimethylpyrimidinium-2-yl)thiomethyl]-3-cephem-4-carboxylate]	2 (≈ 3.21 µM)	4 (≈ 6.41 µM)	0.063 (≈ 0.101 µM)	0.016 (≈ 0.0257 µM)	0.063 (≈ 0.101 µM)	0.13 (≈ 0.208 µM)	0.063 (≈ 0.101 µM)	0.5 (≈ 0.802 µM)	0.031 (≈ 0.0497 µM)	0.063 (≈ 0.101 µM)	≤ 0.008	2 (≈ 3.21 µM)	2 (≈ 3.21 µM)	2 (≈ 3.21 µM)	0.13 (≈ 0.208 µM)	0.13 (≈ 0.208 µM)	0.031 (≈ 0.0497 µM)	0.063 (≈ 0.101 µM)	4 (≈ 6.41 µM)	2 (≈ 3.21 µM)	MIC [2, 26]: 128 µg/mL (≈ 205 µM); MIC ([4]; ATCC29751, 20 h): 1 µg/mL (≈ 1.6 µM); MIC [10]: ≤ 0.008 µg/mL; MIC [23]: > 128 µg/mL; LD50 at 336 h [24]: > 3000 mg/kg
C[C@H](O/N=C(\C(=O)NC1C(=O)N2C(C(=O)[O-])=C(CSc3nc(N)cc(N)[n+]3C)CS[C@H]12)c1csc(N)n1)C(=O)O (stereo partly drawn) [I-S-2, 7-[(Z)-2-(2-aminothiazol-4-yl)-2-[(S)-1-carboxyeth-1-oxyimino]acetamido]-3-[(4,6-diamino-1-methylpyrimidinium-2-yl)thiomethyl]-3-cephem-4-carboxylate]	1 (≈ 1.64 µM)	2 (≈ 3.28 µM)	0.016 (≈ 0.0262 µM)	≤ 0.008	0.031 (≈ 0.0508 µM)	0.016 (≈ 0.0262 µM)	0.016 (≈ 0.0262 µM)	0.13 (≈ 0.213 µM)	0.016 (≈ 0.0262 µM)	0.016 (≈ 0.0262 µM)	≤ 0.008	1 (≈ 1.64 µM)	1 (≈ 1.64 µM)	0.5 (≈ 0.82 µM)	0.13 (≈ 0.213 µM)	0.031 (≈ 0.0508 µM)	≤ 0.008	0.031 (≈ 0.0508 µM)	2 (≈ 3.28 µM)	1 (≈ 1.64 µM)	MIC [2, 26]: 32 µg/mL (≈ 52.5 µM); MIC ([25]; ATCC9885, 20 h): 0.25 µg/mL (≈ 0.41 µM); MIC ([4]; ATCC29751, 20 h): 0.5 µg/mL (≈ 0.82 µM); MIC [23]: > 128 µg/mL; LD50 at 336 h [24]: > 3000 mg/kg
Cc1c(N)nc(SCC2=C(C(=O)[O-])N3C(=O)C(NC(=O)/C(=N\O[C@@H](C)C(=O)O)c4csc(N)n4)[C@H]3SC2)[n+](N)c1N (stereo partly drawn) [I-S-7, 7-[(Z)-2-(2-aminothiazol-4-yl)-2-[(S)-1-carboxyeth-1-oxyimino]acetamido]-3-[(5-methyl-1,4,6-triaminopyrimidinium-2-yl)thiomethyl]-3-cephem-4-carboxylate]	1 (≈ 1.6 µM)	2 (≈ 3.2 µM)	0.016 (≈ 0.0256 µM)	≤ 0.008	0.031 (≈ 0.0496 µM)	0.016 (≈ 0.0256 µM)	0.016 (≈ 0.0256 µM)	0.25 (≈ 0.4 µM)	0.016 (≈ 0.0256 µM)	0.016 (≈ 0.0256 µM)	≤ 0.008	0.5 (≈ 0.8 µM)	1 (≈ 1.6 µM)	0.5 (≈ 0.8 µM)	0.063 (≈ 0.101 µM)	0.063 (≈ 0.101 µM)	0.016 (≈ 0.0256 µM)	0.031 (≈ 0.0496 µM)	4 (≈ 6.4 µM)	2 (≈ 3.2 µM)	MIC ([2]; ATCC11778, Bacillus cereus ATCC 11778, Muller-Hinton agar, 37° C., 20 hours, read-out: MIC): 84 µg/mL (≈ 134 µM); MIC ([25]; ATCC9885, Bacillus megaterium ATCC 9885, Muller-Hinton agar, 37° C., 20 hours, read-out: MIC): 26 µg/mL (≈ 41.6 µM); MIC ([4]; ATCC29751, Enterobacter aerogenes ATCC 29751, Muller-Hinton agar, 37° C., 20 hours, read-out: MIC): 0.15 µg/mL (≈ 0.24 µM); MIC [23]: > 128 µg/mL; LD50 at 336 h [24]: > 5000 mg/kg
